In PMC9416487, “Comprehensive Evaluation of the Quality of Tripterygium Glycosides Tablets Based on Multi-Component Quantification Combined with an In Vitro Biological Assay” (Molecules, 2022):

Tests used:
[1] = test system: NO production in LPS-induced RAW 264.7 cells; assay: Inhibitory effect on NO production in LPS-induced RAW 264.7 cells (Griess reagent); assay type: cell-based; conditions: for IC50: Mus musculus, RAW264.7; for IC50 / NO Inhibitory Effect IC50: investigated compounds, LPS (1 µg/mL)-induced RAW 264.7 cells, 24 h
Procedure: The culture medium was replaced with DMEM medium containing various concentrations of TGT or target compound, subsequently treated with LPS (1 µg/mL), and then incubated for 24 h. After 50 µL of cultured medium was transferred to a new 96-well plate, 50 µL of Griess reagent was added to each well. The absorbance at 540 nm was determined using a microplate reader (PerkinElmer, Waltham, MA, USA). The concentration of NO in the culture supernatants was calculated by using a standard curve of nitrite, a major stable product of NO, which was generated according to the application instructions for the Griess reagent.

RAW 264.7 cells = assay: Cytotoxicity against RAW 264.7 cells (CCK-8 method); conditions: for Therapeutic Index (TI, = TC50/IC50) / Cytotoxicity TC50: investigated compounds; for Cytotoxicity TC50: 24 h, CCK-8
Procedure: Cells were cultured at 37 °C in a humidified air incubator with 5% CO2 in Dulbecco’s modified Eagle’s medium (DMEM; Gibco, Grand Island, NY, USA) supplemented with 10% fetal bovine serum (FBS; Gibco, USA), 100 units/mL penicillin and 100 µg/mL streptomycin (Gibco, USA).
RAW 264.7 cells (5.0 × 10^4 cells/well) were seeded into a 96-well plate. After overnight incubation, various concentrations of TGT or target compound were applied to the cells, which were then incubated for 24 h. The same volume of DMSO was added to the compound-untreated group to account for any effects of DMSO on cell viability. Then, the culture medium was removed, 100 μL DMEM medium plus 10 μL CCK-8 reagent (MCE, Suzhou, China) was added, and the cells were incubated for another 2 h at 37 °C in a 5% CO2 incubator. Absorbance at 450 nm was read using a microplate reader, and cell viability was calculated as the percentage of absorbance of various concentrations versus the control group.

[2] = parameters: method as in PMID 29787994; conditions: reported in the literature ref [20]; cited from earlier work

SMILES	IC50 [1] [µM]	Cytotoxicity TC50 (RAW 264.7 cells)	also measured
CC(C)C1=CC(=O)C2=C(CC[C@H]3[C@@](C)(CO)C(=O)CC[C@]23C)C1=O [triptoquinone B]	35.6	0.11 µM	Therapeutic Index (TI, = TC50/IC50) (RAW 264.7 cells): 0.0031
CC(=O)OC[C@]12[C@H](OC(C)=O)[C@H](OC(C)=O)[C@@H]3[C@@H](OC(C)=O)[C@@]14O[C@@]3(C)COC(=O)c1cccnc1CCC(C)C(=O)O[C@@H]([C@H](OC(=O)c1ccccc1)[C@@H]2OC(C)=O)[C@]4(C)O (stereo partly shown) [wilforine]		w (had weak NO inhibitory effect or cytotoxicity with an NO production rate less than 50% or the cell viability more than 50% at a concentration of 50 μM)	NO Inhibitory Effect IC50 [1]: w (had weak NO inhibitory effect or cytotoxicity with an NO production rate less than 50% or the cell viability more than 50% at a concentration of 50 μM)
CC(=O)OCC12C(OC(C)=O)C(OC(C)=O)C3C(OC(C)=O)C14OC3(C)COC(=O)c1cnccc1C(C)C(C)C(=O)OC(C(OC(C)=O)C2OC(C)=O)C4(C)O (stereo not shown) [peritassine A]	> 50	nu (Had no NO inhibitory effect or cytotoxicity with an NO production rate less than 0 or cell viability more than 100% at a concentration of 50 μM)	
CC(=O)OCC12C(OC(C)=O)C(OC(C)=O)C3C(O)C14OC3(C)COC(=O)c1cccnc1C(C)C(C)C(=O)OC(C(OC(C)=O)C2OC(C)=O)C4(C)O (stereo not shown) [neoeunymine]	> 50	nu (Had no NO inhibitory effect or cytotoxicity with an NO production rate less than 0 or cell viability more than 100% at a concentration of 50 μM)	
C[C@@]1(C(=O)O)CC[C@]2(C)CC[C@]3(C)C4=CC(=O)c5c(cc(O)c(O)c5C=O)[C@]4(C)CC[C@@]3(C)[C@@H]2C1 [demethylzeylasteral]	3.48	27.59 µM	Therapeutic Index (TI, = TC50/IC50) (RAW 264.7 cells): 7.93
CC(C)c1ccc2c(c1O)CC[C@H]1C3=C(CC[C@]21C)C(=O)OC3 [triptophenolide]	43.1		
CC(=O)OC[C@]12[C@H](OC(C)=O)[C@H](OC(C)=O)[C@@H]3[C@@H](OC(C)=O)[C@@]14O[C@@]3(C)COC(=O)c1cccnc1C(C)C(C)C(=O)O[C@@H]([C@H](OC(C)=O)[C@@H]2OC(C)=O)[C@]4(C)O (stereo partly shown) [euonymine]	> 50	nu (Had no NO inhibitory effect or cytotoxicity with an NO production rate less than 0 or cell viability more than 100% at a concentration of 50 μM)	
CC(=O)OC[C@]12[C@H](OC(C)=O)[C@H](OC(C)=O)[C@@H]3[C@@H](OC(C)=O)[C@@]14O[C@@]3(C)COC(=O)c1cccnc1CCC(C)C(=O)O[C@@H]([C@H](OC(=O)c1ccco1)[C@@H]2OC(C)=O)[C@]4(C)O (stereo partly shown) [wilforgine]		w (had weak NO inhibitory effect or cytotoxicity with an NO production rate less than 50% or the cell viability more than 50% at a concentration of 50 μM)	NO Inhibitory Effect IC50 [1]: w (had weak NO inhibitory effect or cytotoxicity with an NO production rate less than 50% or the cell viability more than 50% at a concentration of 50 μM)
CC(C)[C@]12O[C@H]1[C@@H]1O[C@]13[C@]1(O[C@H]1C[C@H]1C4=C(CC[C@@]13C)C(=O)OC4)[C@@H]2O [triptolide]	0.066	0.071 µM	Therapeutic Index (TI, = TC50/IC50) (RAW 264.7 cells): 1.08
CC1=C(O)C(=O)C=C2C1=CC=C1[C@@]2(C)CC[C@@]2(C)[C@@H]3C[C@](C)(C(=O)O)CC[C@]3(C)CC[C@]12C [celastrol]	0.56	1.72 µM	Therapeutic Index (TI, = TC50/IC50) (RAW 264.7 cells): 3.07
C[C@@]1(O)C[C@@]23CC[C@H]4[C@@]5(CCC[C@]4(C)C(=O)OC5)[C@@H]2CC[C@H]1C3 [tripterifordin]	> 50	w ^b (had weak NO inhibitory effect or cytotoxicity with an NO production rate less than 50% or the cell viability more than 50% at a concentration of 50 μM)	
CC1(C)[C@@H](O)CC[C@]2(C)[C@H]3CC=C4[C@@H]5C[C@@]6(C)C[C@H](OC6=O)[C@]5(C)CC[C@@]4(C)[C@]3(C)CC[C@@H]12 [wilforlide A]	> 50	nu (Had no NO inhibitory effect or cytotoxicity with an NO production rate less than 0 or cell viability more than 100% at a concentration of 50 μM)	NO inhibitory effect / anti-inflammatory activity, in words ([1]; LPS-induced RAW 264.7 cells, up to 50 μM): negligible anti-inflammatory activity; oral bioavailability [2]: extremely low; cytotoxicity / influence on cell viability, in words (RAW 264.7 cells; up to 50 μM): negligible
CC(=O)OCC12C(OC(C)=O)C(OC(C)=O)C3C(OC(C)=O)C14OC3(C)COC(=O)c1cccnc1CCC(C)(OC(=O)c1ccccc1)C(=O)OC(C(OC(C)=O)C2OC(C)=O)C4(C)O (stereo not shown) [wilfornine A]		w (had weak NO inhibitory effect or cytotoxicity with an NO production rate less than 50% or the cell viability more than 50% at a concentration of 50 μM)	NO Inhibitory Effect IC50 [1]: w (had weak NO inhibitory effect or cytotoxicity with an NO production rate less than 50% or the cell viability more than 50% at a concentration of 50 μM)
CC(=O)OC[C@]12[C@H](OC(C)=O)[C@H](OC(C)=O)[C@@H]3[C@@H](OC(C)=O)[C@@]14O[C@@]3(C)COC(=O)c1cccnc1CCC(C)(O)C(=O)O[C@@H]([C@H](OC(=O)c1ccco1)[C@@H]2OC(C)=O)[C@]4(C)O (stereo partly shown) [wilfortrine]	> 50	nu (Had no NO inhibitory effect or cytotoxicity with an NO production rate less than 0 or cell viability more than 100% at a concentration of 50 μM)	
